Patent US20090139433A1, “DENTAL MATERIALS BASED ON ALKYLENEDIAMINE-N,N,N',N'- TETRAACETIC ACID- (METH)ACRYLAMIDES” (Ivoclar Vivadent AG, priority 2007, published 2009)

Test: Examination of the resistance to hydrolysis by 1H-NMR on storage
Format: physicochemical
Conditions: 20% solution in DMSO-d6/D2O (1:1); for hydrolysis products in the 1H-NMR spectrum at the start of the investigation: 37° C., at the start / immediately
Procedure: To examine the hydrolysis stabilities of the monomers MAM-EDTA and MA-EDTA, respectively, in each case a 20% solution in DMSO-d6/D2O (1:1) was stored at 37° C. At certain intervals, the ^1H-NMR spectra of these solutions were recorded. […] After 119 days' storage at 37° C., approx. 50% of the methacrylic ester groups had been hydrolyzed. In contrast, the monomer MAM-EDTA according to the invention was clearly more hydrolysis-resistant.

methacrylic ester groups hydrolyzed (after 119 days' storage at 37° C., 1H-NMR) | Substance | hydrolysis products in the 1H-NMR spectrum at the start of the investigation | additional double-bond signals in the 1H-NMR spectrum (after 119 days at 37° C.)
approx. 50% | EDTA-di(2-methacryloyloxyethyl)ester [MA-EDTA] | a second double-bond signal could be observed immediately | 
 | EDTA-di(5-methacrylamidopentyl)ester [MAM-EDTA] | no hydrolysis products could be recognized | no additional double-bond signals could be detected
